The record followed here is ChEMBL document CHEMBL1201862, “PubChem BioAssay data set” (2004).

Among the test systems are A498; HCC 2998; HCT-15; K562; NCI-H23; SF-295; SF-539; SK-MEL-2; SN12C; SW-620; TK-10; UACC-257; UACC-62; OVCAR-3; OVCAR-5.
What all share (assay): DTP human tumour cell line panel, 48 h

Molecules are shown by their SMILES.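 Interpolation was linear, between the two tested concentrations surrounding the appropriate level; five concentrations were tested over 48 hours in 96-well plates. GI50 is the concentration that inhibits growth by half.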 Calls of active or inactive are those of the source. Rule as the data show it: active = GI50 up to about 1.1 µM and inactive = higher.

The term GI50 denotes the concentration that inhibits growth by half.

Take `COc1ccc(S(=O)(=O)NNS(C)(=O)=O)cc1OC`: the GI50 with A498 was > 100 µM (inactive); in the assay on HCC 2998, > 100 µM (inactive); with HCT-15, > 100 µM; in the assay on K562, > 100 µM (inactive); with NCI-H23 it was > 100 µM (inactive); with SF-295, > 100 µM (inactive). The GI50 in the assay on SF-539, with SK-MEL-2, in the assay with SN12C, in the assay on SW-620, with TK-10 and in the assay on UACC-257 was > 100 µM (inactive) each time. Also, the GI50 in the assay on UACC-62 was > 100 µM (inactive).
Regarding `CCOC(=O)C1=C(C)N(Cc2ccccc2)C(=O)C1CC#N` (stereo unspecified), the GI50 with A498 was > 100 µM (inactive); in the assay on HCC 2998 it was > 100 µM (inactive); in the assay with HCT-15 it was > 100 µM; with K562, 70.3 µM (inactive); in the assay on NCI-H23 it was > 100 µM (inactive); in the assay with OVCAR-3 it was > 100 µM (inactive). In addition, the GI50 in the assay with SF-295 was > 100 µM (inactive); with SF-539, > 100 µM (inactive); in the assay with SK-MEL-2, > 100 µM (inactive); with SN12C, > 100 µM (inactive); in the assay with SW-620, 34 µM (inactive); in the assay with UACC-257 it was > 100 µM (inactive). Also, the GI50 in the assay on UACC-62 was 80 µM (inactive).
As for `OC1=CN=COc2ccccc21`, the GI50 in the assay on A498 is > 100 µM (inactive); in the assay with HCC 2998, > 100 µM (inactive); in the assay with HCT-15, > 100 µM; in the assay with K562, > 100 µM (inactive); in the assay on NCI-H23, > 100 µM (inactive); in the assay on OVCAR-3, > 100 µM (inactive). For the same molecule, the GI50 in the assay with SF-295, in the assay on SF-539, in the assay with SK-MEL-2, in the assay with SN12C, in the assay on SW-620 and in the assay with TK-10 was > 100 µM (inactive) in each case. The GI50 in the assay on UACC-257 and in the assay on UACC-62 was > 100 µM (inactive) in each case.
Regarding `CCCCCCCCCCCCCP(=O)(NCC(N)=O)OCC` (stereo unspecified), the GI50 is 35.6 µM (inactive) with A498; 20.2 µM (inactive) in the assay on HCC 2998; 17.8 µM in the assay with HCT-15; 24.3 µM (inactive) with NCI-H23; 15.3 µM (inactive) in the assay on OVCAR-3; 19.5 µM (inactive) in the assay with OVCAR-5. The GI50 with SF-295 is 17.3 µM (inactive); in the assay with SF-539, 17.4 µM (inactive); in the assay on SK-MEL-2 it was 16.3 µM (inactive); in the assay on SN12C it was 18.3 µM (inactive); in the assay with SW-620, 19.9 µM (inactive); with TK-10 it was 18.7 µM (inactive). Besides, the GI50 was 18.9 µM (inactive) in the assay on UACC-257 and 16.3 µM (inactive) in the assay on UACC-62.
Turning to `CC[C@@H]1OC2(C)CC(S(=O)(=O)c3ccccc3)CC1O2` (stereo partly specified), the GI50 was > 100 µM (inactive) in the assay on HCC 2998; > 100 µM in the assay with HCT-15; > 100 µM (inactive) with K562; > 100 µM (inactive) in the assay on NCI-H23; > 100 µM (inactive) in the assay on OVCAR-3; > 100 µM (inactive) in the assay on OVCAR-5. Moreover, the GI50 with SF-295, with SF-539, in the assay on SK-MEL-2, with SN12C, in the assay on SW-620 and in the assay on UACC-257 was > 100 µM (inactive) in each case. In the assay on UACC-62, the GI50 is > 100 µM (inactive).
Take `CC(=O)C1CC2(c3ccccc3)C(=O)c3ccccc3N2O1` (stereo unspecified): the GI50 is > 100 µM (inactive) with A498; > 100 µM (inactive) in the assay with HCC 2998; > 100 µM in the assay with HCT-15; > 100 µM (inactive) with K562; > 100 µM (inactive) in the assay with NCI-H23; > 100 µM (inactive) in the assay with SF-295. Moreover, the GI50 with SF-539, with SN12C, in the assay on SW-620, with UACC-257 and with UACC-62 was > 100 µM (inactive) in each case.
Regarding `Nc1ccc(C(=O)N/C(=C\c2ccc3c(c2)OCO3)c2nc3c(O)nc(S)nc3[nH]2)cc1`, the GI50 in the assay on HCC 2998 is > 100 µM (inactive); in the assay on HCT-15 it was > 100 µM; in the assay with K562, > 100 µM (inactive); in the assay with NCI-H23, > 100 µM (inactive); in the assay with OVCAR-3, > 100 µM (inactive); in the assay on OVCAR-5, > 100 µM (inactive). In addition, the GI50 with SF-295, in the assay on SF-539, in the assay on SK-MEL-2, in the assay with SN12C, in the assay with SW-620 and with TK-10 was > 100 µM (inactive) throughout. In the assay on UACC-62, the GI50 is > 100 µM (inactive).
`COCC(C)(C)/N=C/N1Cc2cc3ccccc3nc2C1`: the GI50 was > 100 µM with HCT-15; > 100 µM (inactive) with K562; > 100 µM (inactive) in the assay on NCI-H23; 75.5 µM (inactive) in the assay with OVCAR-3; > 100 µM (inactive) with SF-295; > 100 µM (inactive) with SF-539. Also, the GI50 in the assay with SK-MEL-2, in the assay on SN12C, in the assay on SW-620, with TK-10, in the assay with UACC-257 and in the assay with UACC-62 was > 100 µM (inactive) in each case.
Regarding `CC(=O)N(C(C)=O)c1c(N)n(C)c(=O)[nH]c1=O`, the GI50 was > 100 µM (inactive) in the assay on A498; > 100 µM (inactive) with HCC 2998; > 100 µM with HCT-15; > 100 µM (inactive) with K562; > 100 µM (inactive) in the assay with NCI-H23; > 100 µM (inactive) with OVCAR-3. Further, the GI50 in the assay with OVCAR-5, with SF-295, in the assay with SF-539, with SK-MEL-2, in the assay on SN12C and in the assay on SW-620 was > 100 µM (inactive) throughout. Also, the GI50 in the assay with UACC-257 and in the assay on UACC-62 was > 100 µM (inactive) each time.
For the molecule `O=C1/C(=C/c2ccccc2)CN(C(=O)Oc2ccccc2)C/C1=C\c1ccccc1`, the GI50 with A498 was 57.4 µM (inactive); with HCT-15 it was 40.6 µM; in the assay on K562 it was 7.13 µM (inactive); with NCI-H23, 33 µM (inactive); with OVCAR-3 it was 99.5 µM (inactive); with OVCAR-5, > 100 µM (inactive). Moreover, the GI50 in the assay on SF-295 is 11.2 µM (inactive); in the assay on SF-539, 5.36 µM (inactive); with SK-MEL-2, 15.6 µM (inactive); with SN12C, 65.3 µM (inactive); with SW-620 it was 20.2 µM (inactive); in the assay with TK-10, 17 µM (inactive). Also, the GI50 with UACC-257 is > 100 µM (inactive); in the assay on UACC-62, 46.3 µM (inactive).
Turning to `Cn1c2ccccc2n2c(=O)c3c(c(C#N)c12)CCCC3`, the GI50 in the assay on A498 is > 100 µM (inactive); in the assay on HCC 2998, > 100 µM (inactive); with HCT-15, > 100 µM; in the assay on K562, > 100 µM (inactive); with NCI-H23 it was > 100 µM (inactive); in the assay with OVCAR-3, > 100 µM (inactive). Also, the GI50 in the assay on OVCAR-5, in the assay with SF-295, with SF-539, in the assay on SK-MEL-2, in the assay on SN12C and in the assay with SW-620 was > 100 µM (inactive) each time. Also, the GI50 with TK-10 and with UACC-257 was > 100 µM (inactive) each time.
`CCOC(=O)C(C)(C)Oc1ccc2c(-c3ccc(Cl)cc3)cc(=O)oc2c1`: the GI50 with A498 was > 100 µM (inactive); in the assay on HCC 2998, > 100 µM (inactive); in the assay on HCT-15, > 100 µM; with K562, > 100 µM (inactive); with NCI-H23 it was > 100 µM (inactive); in the assay with OVCAR-3, > 100 µM (inactive). For the same molecule, the GI50 in the assay with SF-295, in the assay with SF-539, with SK-MEL-2, in the assay on SN12C, with SW-620 and in the assay with TK-10 was > 100 µM (inactive) in each case. Also, the GI50 with UACC-257 and in the assay with UACC-62 was > 100 µM (inactive) in each case.
Consider `Nc1ccc(Nc2nc(F)nc(-c3c4ccccc4c4n3CCS4)n2)cc1`, for which the GI50 was 22 µM (inactive) in the assay with HCC 2998; 10.1 µM in the assay on HCT-15; > 10 µM (inactive) in the assay with K562; 16.2 µM (inactive) in the assay on NCI-H23; 19.3 µM (inactive) with OVCAR-3; 17.6 µM (inactive) with OVCAR-5. Also, the GI50 is 15.7 µM (inactive) in the assay on SF-295; 13.4 µM (inactive) with SF-539; 14.1 µM (inactive) with SK-MEL-2; 15.5 µM (inactive) with SN12C; 13 µM (inactive) in the assay with SW-620; 19.6 µM (inactive) in the assay with TK-10. The GI50 in the assay with UACC-257 is > 10 µM (inactive).
In the case of `CCC(C)CC(C)CC(C)/C=C(\C)C1=C(C)CC(C)(O)O1` (stereo unspecified), the GI50 is > 100 µM (inactive) with A498; > 100 µM (inactive) with HCC 2998; > 100 µM in the assay on HCT-15; 46.7 µM (inactive) in the assay on K562; 76.4 µM (inactive) in the assay on NCI-H23; > 100 µM (inactive) in the assay on SF-539. Further, the GI50 with SN12C was 90.4 µM (inactive); in the assay with SW-620, > 100 µM (inactive); in the assay on TK-10 it was > 100 µM (inactive); with UACC-257 it was 79.1 µM (inactive); with UACC-62, > 100 µM (inactive).
As for `COC(=O)[C@@]12OC[C@]34C([C@@H](O)C1O)[C@@]1(C)CC(=O)C(O)=C(C)C1C[C@H]3OC(=O)[C@H](OC(=O)/C=C(/c1ccccc1)C(F)(F)F)[C@H]42` (stereo partly specified), the GI50 was 1.82 µM (inactive) with A498; 1.75 µM (inactive) in the assay with HCC 2998; 7.93 µM in the assay with HCT-15; 4.93 µM (inactive) in the assay on K562; 1.48 µM (inactive) in the assay with NCI-H23; 8.75 µM (inactive) in the assay with OVCAR-5. In addition, the GI50 in the assay with SF-295 is 4.18 µM (inactive); in the assay with SF-539, 1 µM (active); in the assay on SK-MEL-2 it was 8.26 µM (inactive); in the assay on SN12C it was 8.69 µM (inactive); in the assay on TK-10 it was 7.74 µM (inactive); in the assay on UACC-257, 7.03 µM (inactive). For the same molecule, the GI50 in the assay with UACC-62 was 2.05 µM (inactive).
